Results published in PMC11487390, “Design and Synthesis of 1,3-Diarylpyrazoles and Investigation of Their Cytotoxicity and Antiparasitic Profile” (International Journal of Molecular Sciences, 2024).
Where a name gives a salt, the structure may show the parent alone. Read-outs that look alike come from different tables or passages of the source. Each block holds one compound with its values, some of them ahead of it.

Experiments:
[1] = Cytotoxicity assay, MRC-5SV2 cells, resazurin, 3 days; assay type: cell-based; conditions: human, MRC-5SV2 human lung fibroblast cells, MRC-5 cells, highest concentration 64 µM
Experimental: (§1) The series of final products (13–69) was investigated in vitro on the human fetal lung fibroblast cell line MRC-5 (Table 1) to assess cytotoxicity toward normal (i.e., non-malignant) human cells. […] As explained earlier, these are important pathogens for humans or cattle (T. b. brucei) and a persistent need for new therapeutics exists for these parasites. As a part of the antiparasitic tests, cytotoxicity against primary mouse macrophages (PMMs) was also evaluated. These murine cells serve as host cells for parasites in the L. infantum assay. Therefore, the murine macrophage assay not only offers additional cytotoxicological insight but is also essential to interpreting the readout of the L. infantum assay.
(§2) The MRC-5SV2 human lung fibroblast cell line was cultured in MEM + Earle’s salts-medium, supplemented with 2 mM L-glutamine, 16.5 mM NaHCO3, and 5% inactivated fetal calf serum. For evaluating the antileishmanial activity, the L. infantum MHOM/MA(BE)/67 strain was used. This strain was maintained in a Golden hamster (Mesocricetus auratus). Amastigotes were collected from the spleen of an infected donor hamster using differential centrifugation. Primary peritoneal mouse macrophages were used as host cells and were collected 2 days after peritoneal stimulation with a 2% potato starch suspension. For the intracellular T. cruzi assays, the Tulahuen CL2 strain was used that expresses β-galactosidase. The strain was maintained in MRC-5SV2 cells in MEM medium. The T. b. brucei Squib 427 strain or T. b. rhodesiense STIB-900 strain was used for screening against the extracellular African trypanosomes. The strains were maintained in Hirumi’s Modified Iscove’s medium-9 (HMI-9), supplemented with 10% inactivated fetal calf serum. All cultures and assays were performed at 37 °C with 5% CO2.
(§3) Compound stock solutions were prepared in 100% DMSO at 20 mM. The compounds were serially pre-diluted by robotic plate production (4-fold) in DMSO followed by a further (intermediate) dilution in demineralized water to assure a final in-test DMSO concentration of <1%. Identical test plates containing 10 µL of the different concentrations of each compound were produced for the different assays. For the cytotoxicity assays, 5 concentrations per compound were tested (64–16–4–1–0.25 µM). For the parasitic assays, 10 concentrations per compound were tested, ranging from 64 µM to 0.2 nM.
Assays were performed in sterile 96-well microtiter plates, each well containing 10 µL of the watery compound dilutions together with 190 µL of MRC-5SV2 inoculum (1.5 × 10^5 cells/mL). Cell growth was compared to untreated control wells (100% cell growth) and medium-control wells (0% cell growth). After 3 days incubation, MRC-5 viability was assessed fluorimetrically after addition of 50 μL resazurin per well (final concentration of 10 µg mL^−1). After 4 h at 37 °C, fluorescence was measured (λex 550 nm, λem 590 nm). The results were expressed as % reduction in cell growth/viability compared to positive (100% growth–0% inhibition) and negative (0% growth–100% inhibition) control wells from which EC50 values (50% effective concentrations) were derived using an excel macro that calculates the interpolation of the concentrations corresponding to the flanking points, just above and just below 50% inhibition.

[2] = tested on: primary mouse macrophages (PMMs); test: Cytotoxicity against primary peritoneal mouse macrophages (PMM); assay type: cell-based; conditions: Macrophage
Experimental: as §1, §2
(§4) Primary peritoneal mouse macrophages (PMMs) were prepared in RPMI-1640 medium, supplemented with 2 mM L-glutamine, 16.5 mM NaHCO3, and 5% inactivated fetal calf serum. The macrophages are infected after 48 h with spleen-derived L. infantum amastigotes (3 × 10^4 PMM + 4.5 × 10^5 parasites/well). The compounds were added after 2 h of infection. After 5 days incubation, parasite burdens (mean number of amastigotes/macrophage) were assessed microscopically after staining with a 10% Giemsa solution and EC50 values were calculated.

[3] = tested on: Trypanosoma cruzi Tulahuen CL2 strain; test: Intracellular T. cruzi assay in MRC-5 cells (β-galactosidase/CPRG, 7 days); assay type: cell-based; conditions: intracellular in MRC-5 cells
Experimental: as §2, §3
MRC-5 cells were infected in 96-well plates using a harvested T. cruzi inoculum (4 × 10^3 MRC-5 cells/well + 4 × 10^4 parasites/well) and exposed to 10 µL of the compound dilutions (200 µL/well total volume). Parasite growth determined after 7 days of incubation and compared to untreated infected controls following the addition of the substrate CPRG (chlorophenolred ß-D-galactopyranoside): 50 µL/well of a stock solution containing 15.2 mg CPRG + 250 µL Nonidet in 100 mL PBS. The absorbance was measured spectrophotometrically at 540 nm after 4 h incubation at 37 °C and EC50 values were calculated.

[4] = tested on: L. infantum MHOM/MA(BE)/67 strain; test: L. infantum intracellular amastigote assay in PMM (Giemsa, 5 days); assay type: cell-based, Leishmania infantum
Experimental: as §2, §3, §4

[5] = tested on: T. b. brucei Squib 427 strain; test: T. b. brucei growth assay (resazurin, 3 days); assay type: cell-based, Trypanosoma brucei brucei
Experimental: as §2, §3
(§5) Parasite suspensions (1.5 × 10^4 T. b. brucei/well or 4 × 10^3 T. b. rhodesiense/well) in HMI-9 medium were exposed in a total volume of 200 µL to 10 µL of the compound dilutions Parasite growth was assessed fluorimetrically after 3 days of incubation by the addition of 50 µL resazurin per well. After 6 h (T. b. rhodesiense) or 24 h (T. b. brucei) at 37 °C, fluorescence was measured (λex 550 nm, λem 590 nm), from which viability and EC50 values could be determined.

[6] = tested on: T. b. rhodesiense STIB-900 strain; test: T. b. rhodesiense growth assay (resazurin, 3 days); assay type: cell-based, Trypanosoma brucei rhodesiense
Experimental: as §2, §3, §5

[7] = Trypanosoma cruzi, TULAHUEN, MRC5, 168 h
[8] = Leishmania infantum, 120 h, amastigotes in PMM, 5 days, read-out: L. inf. (EC50)
[9] = Trypanosoma brucei, 72 h, 3 days, read-out: T. b. bruc. (EC50)
[10] = Trypanosoma brucei, RHODESIENSE, 72 h, 3 days, read-out: T. b. rhod. (EC50)
[11] = amastigotes in PMM, 5 days, read-out: L. inf. (EC50)
[12] = Leishmania infantum, 120 h, read-out: L. inf. (EC50, µM), amastigotes in PMM, 5 days
[13] = Trypanosoma brucei, 72 h, read-out: T. b. bruc. (EC50, µM), 3 days
[14] = Trypanosoma brucei, RHODESIENSE, 72 h, read-out: T. b. rhod. (EC50, µM), 3 days

SMILES: CNC(=O)c1cc(Oc2ccc(NC(=O)c3cn(-c4ccccc4)nc3-c3ccc4c(c3)OCCO4)cc2)ccn1 [Compound 38, 4-(4-(3-(2,3-dihydrobenzo[b][1,4]dioxin-6-yl)-1-phenyl-1H-pyrazole-4-carboxamido)phenoxy)-N-methylpicolinamide]
EC50 at 3 days [1]: 6.35 µM
EC50 [2]: > 64 µM
EC50 [3, 7]: > 64 µM
EC50 [4, 8]: > 64 µM
EC50 [5, 9]: 8 µM
EC50 [6, 10]: 1.75 µM

EC50 [4, 8]: < 10 µM
EC50 [4, 11]: 6.96 µM
SMILES: Fc1ccc(NCc2cn(-c3ccccc3)nc2-c2ccc3c(c2)OCCO3)cc1 [Compound 14, N-((3-(2,3-dihydrobenzo[b][1,4]dioxin-6-yl)-1-phenyl-1H-pyrazol-4-yl)methyl)-4-fluoroaniline]
EC50 at 3 days [1]: > 64 µM
EC50 [2]: > 64 µM
EC50 ([5]; 3 days, read-out: T. b. bruc. (EC50)): 8.18 µM
EC50 [5, 9]: < 10 µM
EC50 ([6]; 3 days, read-out: T. b. rhod. (EC50)): 6.35 µM
EC50 [6, 10]: < 10 µM

SMILES: c1ccc(-n2cc(CNCCN3CCOCC3)c(-c3ccc4c(c3)OCCO4)n2)cc1 [Compound 28, N-((3-(2,3-dihydrobenzo[b][1,4]dioxin-6-yl)-1-phenyl-1H-pyrazol-4-yl)methyl)-2-morpholinoethan-1-amine dihydrochloride]
EC50 at 3 days [1]: 29.4 µM
EC50 [2]: 32 µM
EC50 [3, 7]: 30.3 µM
EC50 [4, 12]: 32.5 µM
EC50 [5, 13]: 7.08 µM
EC50 [6, 14]: 6.27 µM

SMILES: O=C(NCCc1cccnc1)c1cn(-c2ccccc2)nc1-c1ccc2c(c1)OCCO2 [Compound 36, 3-(2,3-dihydrobenzo[b][1,4]dioxin-6-yl)-1-phenyl-N-(2-(pyridin-3-yl)ethyl)-1H-pyrazole-4-carboxamide]
EC50 at 3 days [1]: 45 µM
EC50 [2]: > 64 µM
EC50 [3, 7]: 4.56 µM
EC50 [4, 8]: 45.2 µM
EC50 [5, 9]: 19.4 µM
EC50 [6, 10]: 4 µM

SMILES: c1ccc(-n2cc(CNCCc3ccccn3)c(-c3ccc4c(c3)OCCO4)n2)cc1 [Compound 21, N-((3-(2,3-dihydrobenzo[b][1,4]dioxin-6-yl)-1-phenyl-1H-pyrazol-4-yl)methyl)-2-(pyridin-2-yl)ethan-1-amine hydrochloride]
EC50 at 3 days [1]: 29.1 µM
EC50 [2]: 32 µM
EC50 [3, 7]: < 10 µM
EC50 [3]: 7.31 µM
EC50 [4, 12]: < 10 µM
EC50 ([4]; read-out: L. inf. (EC50), amastigotes in PMM, 5 days): 5.06 µM

SMILES: O=C(NCc1ccccc1)c1cn(-c2ccccc2)nc1-c1ccc2c(c1)OCCO2 [Compound 32, N-benzyl-3-(2,3-dihydrobenzo[b][1,4]dioxin-6-yl)-1-phenyl-1H-pyrazole-4-carboxamide]
EC50 at 3 days [1]: > 64 µM
EC50 [2]: > 64 µM
EC50 [3, 7]: 6.79 µM
EC50 [4, 8]: 12.7 µM
EC50 [5, 9]: 24.1 µM
EC50 [6, 10]: 4.86 µM

SMILES: O=C(c1cn(-c2ccccc2)nc1-c1ccc2c(c1)OCCO2)N1CCCC1 [Compound 39, (3-(2,3-dihydrobenzo[b][1,4]dioxin-6-yl)-1-phenyl-1H-pyrazol-4-yl)(pyrrolidin-1-yl)methanone]
EC50 at 3 days [1]: 23.2 µM
EC50 [2]: > 64 µM
EC50 [3, 7]: 8.8 µM
EC50 [4, 8]: 38.1 µM
EC50 [5, 9]: > 64 µM
EC50 [6, 10]: 37.6 µM

SMILES: O=C(Nc1ccc(F)cc1)c1cn(-c2ccccc2)nc1-c1ccc2c(c1)OCCO2 [Compound 31, 3-(2,3-dihydrobenzo[b][1,4]dioxin-6-yl)-N-(4-fluorophenyl)-1-phenyl-1H-pyrazole-4-carboxamide]
EC50 at 3 days [1]: > 64 µM
EC50 [2]: > 64 µM
EC50 [3, 7]: 7.38 µM
EC50 [4, 8]: > 64 µM
EC50 [5, 9]: 6.73 µM
EC50 [6, 10]: 3.12 µM

SMILES: CNC(=O)c1cc(Oc2ccc(NCc3cn(-c4ccccc4)nc3-c3ccc4c(c3)OCCO4)cc2)ccn1 [Compound 22, 4-(4-(((3-(2,3-dihydrobenzo[b][1,4]dioxin-6-yl)-1-phenyl-1H-pyrazol-4-yl)methyl)amino)phenoxy)-N-methylpicolinamide]
EC50 at 3 days [1]: > 64 µM
EC50 [2]: > 64 µM
EC50 [3, 7]: > 64 µM
EC50 [4, 8]: > 64 µM
EC50 [5, 9]: 2.22 µM
selectivity index ([6]; T. b. rhodesiense versus cytotoxicity): 86
EC50 [6, 10]: 0.74 µM

SMILES: O=C(NCCc1ccccn1)c1cn(-c2ccccc2)nc1-c1ccc2c(c1)OCCO2 [Compound 37, 3-(2,3-dihydrobenzo[b][1,4]dioxin-6-yl)-1-phenyl-N-(2-(pyridin-2-yl)ethyl)-1H-pyrazole-4-carboxamide]
EC50 at 3 days [1]: 32 µM
EC50 [2]: > 64 µM
EC50 [3, 7]: 13.1 µM
EC50 [4, 8]: > 64 µM
EC50 [5, 9]: 20.2 µM
EC50 [6, 10]: 2.96 µM

SMILES: O=C(NCCc1ccncc1)c1cn(-c2ccccc2)nc1-c1ccc2c(c1)OCCO2 [Compound 35, 3-(2,3-dihydrobenzo[b][1,4]dioxin-6-yl)-1-phenyl-N-(2-(pyridin-4-yl)ethyl)-1H-pyrazole-4-carboxamide]
EC50 at 3 days [1]: > 64 µM
EC50 [2]: > 64 µM
EC50 [3, 7]: 4.33 µM
EC50 [4, 8]: > 64 µM
EC50 [5, 9]: 23.2 µM
EC50 [6, 10]: 1.28 µM

SMILES: CNC(=O)c1ccc(NCc2cn(-c3ccccc3)nc2-c2ccc3c(c2)OCCO3)cn1 [Compound 18, 5-(((3-(2,3-dihydrobenzo[b][1,4]dioxin-6-yl)-1-phenyl-1H-pyrazol-4-yl)methyl)amino)-N-methylpicolinamide]
EC50 at 3 days [1]: 49.9 µM
EC50 [2]: 32 µM
EC50 [3, 7]: > 64 µM
EC50 [4, 8]: 9.19 µM
EC50 [5, 9]: > 64 µM
EC50 [6, 10]: > 64 µM

SMILES: c1ccc(-n2cc(CNCCc3ccncc3)c(-c3ccc4c(c3)OCCO4)n2)cc1 [Compound 19, N-((3-(2,3-dihydrobenzo[b][1,4]dioxin-6-yl)-1-phenyl-1H-pyrazol-4-yl)methyl)-2-(pyridin-4-yl)ethan-1-amine hydrochloride]
EC50 at 3 days [1]: 20.2 µM
EC50 [2]: 32 µM
EC50 [3, 7]: 7.46 µM
EC50 [4, 12]: 20.3 µM
EC50 [5, 13]: 6.27 µM
EC50 [6, 14]: 1.72 µM

SMILES: O=C(NCc1ccc(F)cc1)c1cn(-c2ccccc2)nc1-c1ccc2c(c1)OCCO2 [Compound 33, 3-(2,3-dihydrobenzo[b][1,4]dioxin-6-yl)-N-(4-fluorobenzyl)-1-phenyl-1H-pyrazole-4-carboxamide]
EC50 at 3 days [1]: 64 µM
EC50 [2]: > 64 µM
EC50 [3, 7]: > 64 µM
EC50 [4, 8]: 8.3 µM
EC50 [4, 11]: 9.51 µM
EC50 [5, 9]: > 64 µM
EC50 [6, 10]: 4.23 µM
